Data taken from patent US20030153538A1, “Antitumor agent” (The Nisshin OilliO, Ltd., priority 2000, published 2003).

Legend:
[1] = system: B-16 melanoma cells; test: Tests for tumor cell-proliferation-inhibitory effect and tumor cell-extinction (cell growth rate from viable cell count); assay type: cell-based; details: for Cell Growth Rate / activity at 5 ppm / activity at 15 ppm / activity at 25 ppm / activity at 50 ppm: viable cell count vs control on 6th day; for activity at 5 ppm / activity at 15 ppm / activity at 25 ppm / activity at 50 ppm: Mus musculus, B16, 144 h; for activity at 5 ppm / activity at 15 ppm / activity at 25 ppm: read-out: Cell Growth Rate; for tumor cell-proliferation-inhibitory effect (in words): summary of Table 1
Method: The tumor cell-proliferation-inhibitory effect and the tumor cell-killing or extinction effect can be determined according to the following method using B-16 melanoma cells.
More specifically, B-16 melanoma cells are inoculated in each well of a 6-well plate in a desired amount, followed by allowing the plate to stand at 37° C. and 5% carbon dioxide concentration to thus cultivate the cells, adding a sample solution to be tested (maslinic acid, erythrodiol, ursolic acid, uvaol, betulinic acid, betulin and physiologically acceptable salts thereof or derivatives thereof) to each well in an amount sufficient for achieving a desired concentration, on the next day or after 5 days from the initiation of the cultivation, determination of viable cell count on the 6th day after the initiation of the cultivation and calculation of the cell growth rate based on the viable cell count to thus evaluate the tumor cell-proliferation-inhibitory effect and the tumor cell-killing effect.
Tests for determining the tumor cell-proliferation-inhibitory effect and the tumor cell-killing effect were conducted according to the following method. To a 6-well plate, a culture medium was dispensed in an amount of 2 mL/well, B-16 melanoma cells were then inoculated in a desired quantity and thereafter the melanoma cells were cultivated by allowing the plate or the culture medium to stand at 37° C. and a carbon dioxide concentration of 5%. On the following day, a test sample solution prepared was added to and admixed with the content of each well to a desired concentration and the cultivation of the melanoma cells was continued. The culture medium was then exchanged on the 5th day from the initiation of the cultivation and the test sample solution was again added to each well. On the next day, the culture medium was removed to recover the cultivated melanoma cells, followed by washing the cells with PBS (phosphate buffered saline), determination of the viable cell count, and then calculation of the cell growth rate according to the following equation 1. The tumor cell-proliferation-inhibitory effect and the tumor cell-killing effect of each test sample were evaluated on the basis of the cell growth rate thus determined.
Cell Growth Rate (%)=(A/B)×100
As comparative examples, oleanolic acid, β-amyrin, α-amyrin and lupeol were added to the culture medium to thus determine and evaluate the cell growth rate by the same method used above.

[2] = system: B16 melanoma cells; test: Test for malignant melanoma metastasis-inhibitory effect (lung metastasis after i.v. injection of B16 melanoma cells); assay type: in vivo, Whister female rats; details: rats; for RMI (rate of metastasis-inhibition): 100 mg/body wt. (kg), Oral Adm., every other day, lung lesions on 15th day; for tumor cell-metastasis-inhibitory effect compared with the control group (in words): metastasis of cancer to lung, summary of Table 2
Method: The tumor cell-metastasis-inhibitory effect can be evaluated according to, for instance, the malignant melanoma metastasis-inhibitory test. More specifically, a suspension of B16 melanoma cells prepared in advance is intravenously injected into Whister female rats, cotton seed oil in which each test substance is dissolved in a predetermined concentration is intraperitoneally administered through injection or orally administered using a sonde, every second day starting from 2nd day after the intravenous injection of the suspension. In this connection, only cotton seed oil is administered to the control group of animals. The lungs are extracted from these animals on the 15th day after the injection of the B16 melanoma cells, the lungs are examined to determine the number of cancer lesions thus metastasized to thus calculate the rate of metastasis-inhibition. The tumor cell-metastasis-inhibitory effect of each test sample is evaluated on the basis of the resulting rate of metastasis-inhibition.
Tests for evaluating the malignant melanoma metastasis-inhibitory effect of each test sample were conducted according to the following method. Whister female rats (6-week-old; average body weight: 160 g) were preliminarily bred with a powdery feed preparation having a composition of AIN-93 for one week, these animals were divided into 5 groups (8 animals per group) so as to equalize the average body weight and then a previously prepared suspension of B16 melanoma cells was intravenously injected into each rat. Subsequently, these animals were bred with a powdery feed preparation having a composition of AIN-93 and cotton seed oil in which each of maslinic acid, erythrodiol, ursolic acid, uvaol, betulinic acid, betulin, compounds of Synthetic Examples 1 and 2, or oleanolic acid had been dissolved in a predetermined concentration was intraperitoneally injected into each animal or orally administered thereto using a sonde, every other day starting from the 2nd day after the injection of the B 16 melanoma cells. In this connection, only cotton seed oil was administered to the control group. On the 15th day after the injection of the B 16 melanoma cells, the lung of each animal was taken out, the lungs were examined to determine the number of cancer lesions thus metastasized and to thus calculate the rate of metastasis-inhibition in accordance with the following equation 2. The tumor cell-metastasis-inhibitory effect of each test sample could be evaluated on the basis of the resulting rate of metastasis-inhibition.
Rate of Metastasis-Inhibition (%)=[(D−C)/D]×100
Wherein C: Average number of cancer lesions metastasized observed in each animal group; and D: average number of cancer lesions metastasized observed in the control group.
Maslinic acid, erythrodiol, ursolic acid, uvaol, betulinic acid, betulin and physiologically acceptable salts thereof or derivatives thereof as well as cotton seed oil as the control were inspected for the rate of metastasis-inhibition (RMI) using the dose and administration methods specified in the following Table 2. In addition, the same procedures used above were repeated except for using oleanolic acid as a comparative sample to thus evaluate the rate of metastasis-inhibition (RMI) thereof.

| Compound | Cell Growth Rate ([1]; 5 ppm) | Cell Growth Rate ([1]; 10 ppm) | Cell Growth Rate ([1]; 15 ppm) | Cell Growth Rate ([1]; 20 ppm) | Cell Growth Rate ([1]; 25 ppm) | activity at 5 ppm ([1]; 5 ppm) | activity at 15 ppm ([1]; 15 ppm) | activity at 25 ppm ([1]; 25 ppm) | activity at 50 ppm [1] | tumor cell-proliferation-inhibitory effect (in words) [1] | RMI (rate of metastasis-inhibition) [2] | tumor cell-metastasis-inhibitory effect compared with the control group (in words) [2] |
| --- | --- | --- | --- | --- | --- | --- | --- | --- | --- | --- | --- | --- |
| 2,3-O-di-stearoyl-maslinic acid ethyl ester [Comp. Of Synthetic Ex. 4] | 100% | 82% | 52% | 13% | 0% |  |  |  |  |  |  |  |
| 2,3-O-di-triethylsilyl-maslinic acid triethylsilyl ester [Comp. Of Synthetic Ex. 3] | 93% | 75% | 54% | 21% | 0% |  |  |  |  |  |  |  |
| C=C(C)[C@@H]1CC[C@]2(CO)CC[C@]3(C)[C@H](CC[C@@H]4[C@@]5(C)CC[C@H](O)C(C)(C)[C@@H]5CC[C@]43C)[C@@H]12 [Betulin] |  |  |  |  |  | 100% | 78% | 72% | 63% | quite strong tumor cell-proliferation-inhibitory effects | 38.9% | significantly (P<0.05) inhibit any metastasis of cancer to lung |
| C=C(C)[C@@H]1CC[C@]2(C(=O)O)CC[C@]3(C)[C@H](CC[C@@H]4[C@@]5(C)CC[C@H](O)C(C)(C)[C@@H]5CC[C@]43C)[C@@H]12 [Betulinic acid] |  |  |  |  |  | 88% | 77% | 58% | 38% | quite strong tumor cell-proliferation-inhibitory effects | 51.2% | significantly (P<0.05) inhibit any metastasis of cancer to lung |
| CCOC(=O)[C@]12CCC(C)(C)C[C@H]1C1=CC[C@@H]3[C@@]4(C)C[C@@H](O)[C@H](O)C(C)(C)[C@@H]4CC[C@@]3(C)[C@]1(C)CC2 [Comp. Of Synthetic Ex. 1, maslinic acid ethyl ester] | 73% | 49% | 18% | 0% | 0% |  |  |  |  |  | 77.6% |  |
| CC(=O)O[C@@H]1C[C@]2(C)[C@H]3CC=C4[C@@H]5CC(C)(C)CC[C@]5(C(=O)O)CC[C@@]4(C)[C@]3(C)CC[C@H]2C(C)(C)[C@H]1OC(C)=O [Comp. Of Synthetic Ex. 2, 2,3-O-di-acetyl-maslinic acid] | 89% | 63% | 34% | 4% | 0% |  |  |  |  |  | 74.8% |  |
| CC(=O)OCC12CCC(C)(C)CC1C1=CCC3C4(C)CCC(OC(C)=O)C(C)(C)C4CCC3(C)C1(C)CC2 (centres unmarked) [Comp. Of Synthetic Ex. 5, 3,28-O-di-acetyl-erythrodiol] | 68% | 50% | 23% | 0% | 0% |  |  |  |  |  |  |  |
